Assay results as given in patent publication US7192982B2, “Modulators of peroxisome proliferator activated receptors” (Ligand Pharmaceuticals, Inc., priority 2001, dated 2007).

What was measured:
[1] = tested on: mice, transgenic for human apoAI; assay: Evaluation of triglyceride and cholesterol levels in HuapoAI transgenic mice; format: in vivo; settings: hu apoAI transgenic mice
Description: Five to six week old male mice, transgenic for human apoAI [C57B1/6-tgn(apoa1)1rub, Jackson Laboratory, Bar Harbor, Me.] were housed five per cage (10″×20″×8″ with aspen chip bedding) with food (Purina 5001) and water available at all times. After an acclimation period of 2 weeks, animals were individually identified by ear notches, weighed and assigned to groups based on body weight. Beginning the following morning, mice were dosed daily by oral gavage for 7 days using a 20 gauge, 1½″ curved disposable feeding needle. Treatments were test compounds (30 mg/kg), a positive control (fenofibrate, 100 mg/kg) or vehicle [1% carboxymethylcellulose (w/v)/0.25% Tween80 (w/v); 0.2 ml/mouse]. Prior to termination on day 7, mice were weighed and dosed. Three hours after dosing, animals were anesthetized by inhalation of isoflurane (2–4%) and blood obtained via cardiac puncture (0.7–1.0 ml). Whole blood was transferred to serum separator tubes (Vacutainer SST), chilled on ice and permitted to clot. Serum, was obtained after centrifugation at 4° C. and frozen until analysis for triglycerides, total cholesterol, compound levels and serum lipoprotein profiled by fast protein liquid, chromatography (FPLC) coupled to an inline detection system. After sacrifice by cervical dislocation, the liver, heart and epididymal fat pads were excised and weighed.
Glucose was measured colorimetrically by using commercially purchased reagents (Sigma #315-500). According to the manufacturers, the procedures were modified from published work (McGowan et al. Clin Chem, 20:470–5 (1974) and Keston, A. Specific colorimetric enzymatic analytical reagents for glucose. Abstract of papers 129th Meeting ACS, 31C (1956).); and depend on the release of a mole of hydrogen peroxide for each mole of analyte coupled with a color reaction first described by Trinder (Trinder, P. Ann Clin Biochem, 6:24 (1969)). The absorbance of the dye produced was linearly related to the analyte in the sample. The assays was further modified for use in a 96 well format. Standards (Sigma #339-11, Sigma #16-11, and Sigma #CC0534 for glucose, triglycerides and total cholesterol, respectively), quality control plasma (Sigma # A2034), and samples-(2 or 5 μl well) were measured in duplicate using 200 μl of reagent. An additional aliquot of sample, pipetted to a third well and diluted in 200 μl water, provided ai blank for each specimen. Plates were incubated at room temperature (18, 15, and 10 minutes for glucose, triglycerides and total cholesterol, respectively) on a plate shaker and absorbance read at 500 nm (glucose and total cholesterol) or 540 nm (triglycerides) on a plate reader. Sample absorbance was compared to a standard curve (100–800, 10–500, and 100–400 mg/dl for glucose, triglycerides and total cholesterol, respectively). Values for the quality control sample wee consistently within the expected range and the coefficient of variation for samples is below 10%. All samples from an experiment were assayed at the same time to minimize inter-assay variability.
Serum lipoproteins were separated and cholesterol was quantitated with an in-line detection system. Sample was applied to a Superose® 6 HR 10/30 size exclusion column (Amersham Pharmacia Biotech) and eluted with phosphate buffered saline-EDTA at 0.5 ml/min. Cholesterol reagent (Roche Diagnostics Chol/HP 704036) at 0.16 ml/min was mixed with the column effluent through a T-connection, and the mixture was passed through a 15 m×0.5 mm id knitted tubing reactor immersed in a 37° C. water bath. The colored product produced in the presence of cholesterol was monitored in the flow stream at 505 nm, and the analog voltage from the monitor was converted to a digital signal for collection and analysis. The change in voltage corresponding to change in cholesterol concentration was plotted against time, and the area under the curve corresponding to the elution of VLDL, LDL and HDL was calculated (Perkin Elmer Turbochrome software).

Question: For CO[C@@H](Cc1ccc(C#CCOc2ccc(-c3ccccc3)cc2)cc1)C(=O)O [Example 1, (2S)-3-{4-[3-(Biphenyl-4-yloxy)-prop-1-ynyl]-phenyl}-2-methoxy-propionic acid], which melting point is on record?
Answer: 111 to 112 °C

Question: Which “mean percent increase of HDLc” value ([1]; FPLC of pooled sera, 100 mg/kg oral daily for 7 days, versus vehicle) does the source give for CC(C)OC(=O)C(C)(C)Oc1ccc(C(=O)c2ccc(Cl)cc2)cc1 [fenofibrate] here?
Answer: 48%

Question: What about the “high-density lipoprotein cholesterol (HDLc) peak area” value ([1]; FPLC of pooled sera, 100 mg/kg oral daily for 7 days, vehicle 47 v-sec to 62 v-sec) of the same compound?
Answer: 68–96 v-sec

Question: And the “mean elevation of total serum cholesterol” value ([1]; 100 mg/kg oral gavage daily for 7 days, versus vehicle)?
Answer: 41%

Question: What about the “average total serum cholesterol values” ([1]; 100 mg/kg oral gavage daily for 7 days, vehicle about 140 to 180 mg/dl) of the same compound?
Answer: 190 to 280 mg/dL

Question: And the “mean reduction of triglycerides” value ([1]; serum, 100 mg/kg oral gavage daily for 7 days, versus vehicle)?
Answer: 37%

Question: What about the average triglycerides values ([1]; serum, 100 mg/kg oral gavage daily for 7 days, vehicle about 60 to 80 mg/dl) of the same compound?
Answer: 33 to 58 mg/dL
